From patent US4110327A, “2,3 Diketo-piperazinocarbonylamino alkanoic acids and derivatives” (Toyama Chemical Co., Ltd., priority 1974, dated 1978)
≈ marks a conversion by molar mass, not a printed value.

What was measured:
Assay type in all cases: cell-based
[1] = test system: Staphylococcus aureus 209p; assay: MIC against standard strain, plate method; conditions: unit assumed
Method: (§1) The minimum inhibitory concentrations (MIC) was determined by the plate method disclosed in "Chemotherapy" (Japan), Vol. 16, (1968), pages 98 - 99. The culture medium used was a Heart infusion agar (pH 7.4). The number of the cells per plate used in the inoculum as 10^4 (10^6 cells/ml).

[2] = test system: Pseudomonas aeruginosa I.F.O.; assay: MIC against standard strain, plate method; conditions: unit assumed
Method: as §1

[3] = test system: Proteus vulgaris 3027; assay: MIC against standard strain, plate method; conditions: Proteus vulgaris 3027, standard strain; unit assumed
Method: as §1

[4] = test system: Escherichia coli NIHJ; assay: MIC against standard strain, plate method; conditions: unit assumed
Method: as §1

[5] = test system: Klebsiella pneumoniae; assay: MIC against standard strain, plate method; conditions: unit assumed
Method: as §1

[6] = test system: Klebsiella pneumoniae; assay: MIC against clinical isolates; conditions: unit assumed
[7] = test system: Staphylococcus aureus; assay: MIC against clinical isolates; conditions: unit assumed
[8] = test system: Pseudomonas aeruginosa; assay: MIC against clinical isolates; conditions: unit assumed
[9] = test system: Escherichia coli; assay: MIC against clinical isolates; conditions: unit assumed

**Q.** What does the source list for `CC1(C)S[C@@H]2[C@H](NC(=O)[C@H](NC(=O)N3CC(=O)N(C(=O)c4ccccc4)CC3=O)c3ccccc3)C(=O)N2[C@H]1C(=O)O` [compound 34]?
**A.** MIC [1]: 1.57 mg/L (≈ 2.64 µM); MIC [2]: 100 mg/L (≈ 168 µM); MIC [3]: 50 mg/L (≈ 84.2 µM); MIC [4]: 3.13 mg/L (≈ 5.27 µM); MIC [5]: 50 mg/L (≈ 84.2 µM)

**Q.** Which results are given for `CCCCCCCCCCCCN1CCN(C(=O)N[C@@H](C(=O)N[C@@H]2C(=O)N3[C@@H]2SC(C)(C)[C@@H]3C(=O)O)c2ccccc2)CC1=O` [compound 31]?
**A.** MIC [1]: < 1.57 mg/L; MIC [2]: 12.5 mg/L (≈ 19.4 µM); MIC [3]: < 1.57 mg/L; MIC [4]: < 1.57 mg/L; MIC [5]: 6.25 mg/L (≈ 9.71 µM)

**Q.** Which MIC [1] does the source give for `CCCCN1CCN(C(=O)N[C@@H](C(=O)N[C@@H]2C(=O)N3[C@@H]2SC(C)(C)[C@@H]3C(=O)O)c2ccccc2)CC1=O` [compound 18] here?
**A.** The MIC was less than 1.57 mg/L.

**Q.** What about the MIC [2] of the same molecule?
**A.** Its MIC is 12.5 mg/L (≈ 23.5 µM).

**Q.** What about the MIC [3] of the same molecule?
**A.** Its MIC is 3.13 mg/L (≈ 5.89 µM).

**Q.** What about the MIC [4] of the same molecule?
**A.** The MIC was less than 1.57 mg/L.

**Q.** And the MIC [5]?
**A.** The MIC was 25 mg/L (≈ 47 µM).

**Q.** Which results are given for `CC1(C)S[C@@H]2[C@H](NC(=O)[C@H](NC(=O)N3CCN(C(=O)c4ccc(Cl)cc4)CC3=O)c3ccccc3)C(=O)N2[C@H]1C(=O)O` [compound 8]?
**A.** MIC [1]: < 1.57 mg/L; MIC [4]: < 1.57 mg/L; MIC [5]: 6.25 mg/L (≈ 10.2 µM)

**Q.** What does the source list for `CN1CCN(C(=O)N[C@@H](C(=O)N[C@@H]2C(=O)N3[C@@H]2SC(C)(C)[C@@H]3C(=O)OC2OC(=O)c3ccccc32)c2ccccc2)C(=O)C1=O` (single isomer, unassigned) [compound 49]?
**A.** MIC [1]: < 0.4 mg/L; MIC [2]: 12.5 mg/L (≈ 19.7 µM); MIC [3]: 1.57 mg/L (≈ 2.47 µM); MIC [4]: 0.79 mg/L (≈ 1.24 µM); MIC [5]: 12.5 mg/L (≈ 19.7 µM)

**Q.** Which results are given for `CC1(C)S[C@@H]2[C@H](NC(=O)[C@H](NC(=O)N3CCN(C(=O)c4ccc(Cl)cc4Cl)CC3=O)c3ccccc3)C(=O)N2[C@H]1C(=O)O` [compound 10]?
**A.** MIC [1]: < 1.57 mg/L; MIC [2]: 100 mg/L (≈ 154 µM); MIC [3]: 3.13 mg/L (≈ 4.83 µM); MIC [4]: < 1.57 mg/L; MIC [5]: 6.25 mg/L (≈ 9.64 µM)

**Q.** What does the source list for `CC1(C)S[C@@H]2[C@H](NC(=O)[C@H](NC(=O)N3CCN(c4ccccc4)C(=O)C3=O)c3ccccc3)C(=O)N2[C@H]1C(=O)O` (single isomer, unassigned) [compound 43]?
**A.** MIC [1]: < 1.57 mg/L; MIC [2]: 6.25 mg/L (≈ 11.1 µM); MIC [3]: < 1.57 mg/L; MIC [4]: < 1.57 mg/L; MIC [5]: 1.57 mg/L (≈ 2.78 µM)

**Q.** Which MIC [1] does the source give for `CC1(C)S[C@@H]2[C@H](NC(=O)[C@H](NC(=O)N3CCN(CCCl)C(=O)C3=O)c3ccccc3)C(=O)N2[C@H]1C(=O)O` [compound 44] here?
**A.** Its MIC is less than 1.57 mg/L.

**Q.** And the MIC [2]?
**A.** The MIC was 6.25 mg/L (≈ 11.3 µM).

**Q.** What about the MIC [3] of the same molecule?
**A.** The MIC was less than 1.57 mg/L.

**Q.** And the MIC [4]?
**A.** Its MIC is less than 1.57 mg/L.

**Q.** What about the MIC [5] of the same molecule?
**A.** Its MIC is less than 1.57 mg/L.

**Q.** Which results are given for `CC1(C)S[C@@H]2[C@H](NC(=O)[C@H](NC(=O)N3CCN(Cc4ccccc4)C(=O)C3)c3ccccc3)C(=O)N2[C@H]1C(=O)O` [compound 23]?
**A.** MIC [1]: < 1.57 mg/L; MIC [2]: 25 mg/L (≈ 44.2 µM); MIC [3]: 3.13 mg/L (≈ 5.53 µM); MIC [4]: < 1.57 mg/L; MIC [5]: 6.25 mg/L (≈ 11 µM)

**Q.** What does the source list for `CC(C)CCN1CCN(C(=O)N[C@@H](C(=O)N[C@@H]2C(=O)N3[C@@H]2SC(C)(C)[C@@H]3C(=O)O)c2ccccc2)CC1=O` [compound 21]?
**A.** MIC [1]: < 0.79 mg/L; MIC [2]: 25 mg/L (≈ 45.8 µM); MIC [3]: 3.13 mg/L (≈ 5.74 µM); MIC [4]: 1.57 mg/L (≈ 2.88 µM); MIC [5]: 25 mg/L (≈ 45.8 µM)

**Q.** Which results are given for `CC1(C)S[C@@H]2[C@H](NC(=O)[C@H](NC(=O)N3CCN(CCO)C(=O)C3)c3ccccc3)C(=O)N2[C@H]1C(=O)O` [compound 24]?
**A.** MIC [1]: 3.13 mg/L (≈ 6.02 µM); MIC [2]: 50 mg/L (≈ 96.2 µM); MIC [3]: 25 mg/L (≈ 48.1 µM); MIC [4]: < 1.57 mg/L; MIC [5]: 50 mg/L (≈ 96.2 µM)

**Q.** Which MIC [1] does the source give for `CN1CCN(C(=O)N[C@@H](C(=O)N[C@@H]2C(=O)N3[C@@H]2SC(C)(C)[C@@H]3C(=O)OCOC(=O)C(C)(C)C)c2ccccc2)C(=O)C1=O` (single isomer, unassigned) [compound 52] here?
**A.** The MIC was 0.79 mg/L (≈ 1.28 µM).

**Q.** And the MIC [2]?
**A.** The MIC was 25 mg/L (≈ 40.5 µM).

**Q.** What about the MIC [3] of the same molecule?
**A.** The MIC was 1.57 mg/L (≈ 2.54 µM).

**Q.** What about the MIC [4] of the same molecule?
**A.** Its MIC is 0.79 mg/L (≈ 1.28 µM).

**Q.** And the MIC [5]?
**A.** The MIC was 25 mg/L (≈ 40.5 µM).

**Q.** Which MIC ([6]; clinical isolate GN 917) does the source give for `O=C(Cc1cccs1)N[C@@H]1C(=O)N2C(C(=O)[O-])=C(C[n+]3ccccc3)CS[C@H]12` [Cephalorizine, reference compound] here?
**A.** Its MIC is 3.13 mg/L (≈ 7.53 µM).

**Q.** What about the MIC ([6]; clinical isolate GN 4081) of the same molecule?
**A.** The MIC was 12.5 mg/L (≈ 30.1 µM).

**Q.** And the MIC ([6]; clinical isolate GN 4117)?
**A.** The MIC was 12.5 mg/L (≈ 30.1 µM).

**Q.** What about the MIC ([7]; clinical isolate F-1) of the same molecule?
**A.** Its MIC is less than 0.4 mg/L.

**Q.** What about the MIC ([7]; clinical isolate F-2) of the same molecule?
**A.** Its MIC is less than 0.4 mg/L.

**Q.** What about the MIC ([7]; clinical isolate F-3) of the same molecule?
**A.** Its MIC is less than 0.4 mg/L.

**Q.** And the MIC ([7]; clinical isolate F-4)?
**A.** Its MIC is less than 0.4 mg/L.

**Q.** What about the MIC ([7]; clinical isolate F-5) of the same molecule?
**A.** The MIC was 0.78 mg/L (≈ 1.88 µM).

**Q.** What about the MIC ([7]; clinical isolate MS 8588) of the same molecule?
**A.** The MIC was less than 0.4 mg/L.

**Q.** And the MIC ([7]; clinical isolate MS 8596)?
**A.** Its MIC is less than 0.4 mg/L.

**Q.** And the MIC ([7]; clinical isolate MS 8619)?
**A.** The MIC was less than 0.4 mg/L.

**Q.** What about the MIC ([7]; clinical isolate MS 8684) of the same molecule?
**A.** The MIC was less than 0.4 mg/L.

**Q.** And the MIC ([7]; clinical isolate MS 8713)?
**A.** Its MIC is less than 0.4 mg/L.

**Q.** What about the MIC ([8]; clinical isolate GN 82) of the same molecule?
**A.** The MIC was greater than 200 mg/L.

**Q.** And the MIC ([8]; clinical isolate GN 163)?
**A.** Its MIC is greater than 200 mg/L.

**Q.** And the MIC ([8]; clinical isolate GN 221)?
**A.** Its MIC is greater than 200 mg/L.

**Q.** And the MIC ([8]; clinical isolate GN 244)?
**A.** Its MIC is greater than 200 mg/L.

**Q.** What about the MIC ([8]; clinical isolate GN 376) of the same molecule?
**A.** Its MIC is greater than 200 mg/L.

**Q.** What about the MIC ([8]; clinical isolate GN 383) of the same molecule?
**A.** Its MIC is greater than 200 mg/L.

**Q.** What about the MIC ([8]; clinical isolate GN 1035) of the same molecule?
**A.** The MIC was greater than 200 mg/L.

**Q.** What about the MIC ([8]; clinical isolate GN 1091) of the same molecule?
**A.** Its MIC is greater than 200 mg/L.

**Q.** And the MIC ([8]; clinical isolate GN 2565)?
**A.** The MIC was greater than 200 mg/L.

**Q.** What about the MIC ([8]; clinical isolate GN 2987) of the same molecule?
**A.** The MIC was greater than 200 mg/L.

**Q.** And the MIC ([8]; clinical isolate S-1)?
**A.** The MIC was greater than 200 mg/L.

**Q.** And the MIC ([8]; clinical isolate S-2)?
**A.** Its MIC is greater than 200 mg/L.

**Q.** And the MIC ([8]; clinical isolate S-3)?
**A.** The MIC was greater than 200 mg/L.

**Q.** And the MIC ([8]; clinical isolate S-4)?
**A.** The MIC was greater than 200 mg/L.

**Q.** What about the MIC ([9]; clinical isolate GN 3435) of the same molecule?
**A.** The MIC was 3.13 mg/L (≈ 7.53 µM).

**Q.** What about the MIC ([9]; clinical isolate GN 3452) of the same molecule?
**A.** The MIC was 3.13 mg/L (≈ 7.53 µM).

**Q.** And the MIC ([9]; clinical isolate GN 3465)?
**A.** The MIC was 50 mg/L (≈ 120 µM).

**Q.** What about the MIC ([9]; clinical isolate GN 3481) of the same molecule?
**A.** Its MIC is 3.13 mg/L (≈ 7.53 µM).

**Q.** What about the MIC ([9]; clinical isolate GN 3611) of the same molecule?
**A.** Its MIC is 100 mg/L (≈ 241 µM).

**Q.** What about the MIC ([9]; clinical isolate K-1) of the same molecule?
**A.** The MIC was 3.13 mg/L (≈ 7.53 µM).

**Q.** And the MIC ([9]; clinical isolate K-2)?
**A.** Its MIC is 3.13 mg/L (≈ 7.53 µM).

**Q.** What about the MIC ([9]; clinical isolate K-3) of the same molecule?
**A.** Its MIC is 200 mg/L (≈ 481 µM).

**Q.** What about the MIC ([9]; clinical isolate K-4) of the same molecule?
**A.** The MIC was 6.25 mg/L (≈ 15 µM).

**Q.** How did the MIC [1] turn out when `O=C(Cc1cccs1)N[C@@H]1C(=O)N2C(C(=O)[O-])=C(C[n+]3ccccc3)CS[C@H]12` [Cephaloridine, reference compound] was run?
**A.** Its MIC is less than 1.57 mg/L.

**Q.** What about the MIC [2] of the same molecule?
**A.** Its MIC is 200 mg/L (≈ 481 µM).

**Q.** What about the MIC [4] of the same molecule?
**A.** The MIC was greater than 3.13 mg/L.

**Q.** And the MIC [5]?
**A.** Its MIC is 200 mg/L (≈ 481 µM).
